Assay results from ChEMBL document CHEMBL1201862, “PubChem BioAssay data set” (2004).
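Briefly, cells in 96-well plates were exposed to five compound concentrations for 48 h, and endpoints were estimated by linear interpolation. At the GI50, growth is halved.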 Active and inactive are the calls of the source. Rule as the data show it: active = GI50 up to about 1.1 µM and inactive = higher.

Assays:
Experiment in all cases: DTP human tumour cell line panel, 48 h
[1] = tested on: UACC-62
[2] = tested on: SNB-75
[3] = tested on: EKVX
[4] = tested on: DU-145
[5] = tested on: MDA-MB-435
[6] = tested on: HCT-15
[7] = tested on: CAKI-1
[8] = tested on: SF-268
[9] = tested on: OVCAR-5
[10] = tested on: SK-MEL-28
[11] = tested on: TK-10
[12] = tested on: T47D
[13] = tested on: IGROV-1
[14] = tested on: OVCAR-8
[15] = tested on: HL-60
[16] = tested on: U-251
[17] = tested on: MOLT-4
[18] = tested on: MCF7
[19] = tested on: UACC-257
[20] = tested on: MDA-N

Structure (SMILES)	GI50 [1]	GI50 [2]	GI50 [3]	GI50 [4]	GI50 [5]	GI50 [6]	GI50 [7]	GI50 [8]	GI50 [9]	GI50 [10]	GI50 [11]	GI50 [12]	GI50 [13]	GI50 [14]	GI50 [15]	GI50 [16]	GI50 [17]	GI50 [18]	GI50 [19]	GI50 [20]
N#Cc1c(-c2ccc(Cl)cc2)cc(-c2ccc(Nc3ccnc4cc(Cl)ccc34)cc2)nc1N	> 100 µM (inactive)	> 100 µM (inactive)	> 100 µM (inactive)	> 100 µM (inactive)	> 100 µM (inactive)	> 100 µM	> 100 µM (inactive)	> 100 µM (inactive)	> 100 µM (inactive)	> 100 µM (inactive)	> 100 µM (inactive)	> 100 µM (inactive)	> 100 µM (inactive)	40.1 µM (inactive)	> 100 µM (inactive)	97.1 µM (inactive)	–	–	–	–
c1cc2c3c(c1)c1cc4c(cc1c[n+]3CC2)OCO4 [ANHYDROLYCORINIUM CHLORIDE]	5.85 µM (inactive)	2.44 µM (inactive)	3.4 µM (inactive)	–	–	> 164 µM	12.5 µM (inactive)	0.618 µM (active)	2.85 µM (inactive)	4.82 µM (inactive)	–	–	4.02 µM (inactive)	1.33 µM (inactive)	6.3 µM (inactive)	0.811 µM (active)	1.25 µM (inactive)	6.25 µM (inactive)	5.28 µM (inactive)	–
CCCCCCCCCCCCCCCCCCOCC(O)CO (stereo unspecified) [BATILOL]	21.7 µM (inactive)	9.48 µM (inactive)	> 14.1 µM (inactive)	–	–	> 25 µM	3.57 µM (inactive)	> 25 µM (inactive)	> 25 µM (inactive)	> 25 µM (inactive)	–	–	13.6 µM (inactive)	> 25 µM (inactive)	10.5 µM (inactive)	> 25 µM (inactive)	17.2 µM (inactive)	> 25 µM (inactive)	> 23.9 µM (inactive)	–
NN/C(=N\S(=O)(=O)c1cc2ccccc2o1)Nc1ccc(Cl)cc1	> 100 µM (inactive)	13.1 µM (inactive)	91.2 µM (inactive)	> 100 µM (inactive)	–	> 100 µM	> 100 µM (inactive)	33.9 µM (inactive)	> 100 µM (inactive)	> 100 µM (inactive)	72.6 µM (inactive)	28.2 µM (inactive)	53 µM (inactive)	51.1 µM (inactive)	> 100 µM (inactive)	46.6 µM (inactive)	> 100 µM (inactive)	> 100 µM (inactive)	> 100 µM (inactive)	> 100 µM (inactive)
CCCCOc1ccc(S(=O)(=O)/N=C(\NN)Nc2ccc(Cl)cc2)cc1	> 100 µM (inactive)	12.2 µM (inactive)	45.4 µM (inactive)	17.2 µM (inactive)	–	36 µM	21.5 µM (inactive)	17.4 µM (inactive)	21 µM (inactive)	43.7 µM (inactive)	43.5 µM (inactive)	16.2 µM (inactive)	26.1 µM (inactive)	19 µM (inactive)	31 µM (inactive)	16.4 µM (inactive)	23.3 µM (inactive)	32.1 µM (inactive)	23.1 µM (inactive)	32.3 µM (inactive)
COc1cc(/C=N/n2c(Cc3ccc(Cl)cc3)n[nH]c2=O)cc(OC)c1OC	> 100 µM (inactive)	65.2 µM (inactive)	> 100 µM (inactive)	–	> 100 µM (inactive)	> 100 µM	> 100 µM (inactive)	46.3 µM (inactive)	> 100 µM (inactive)	> 100 µM (inactive)	–	> 100 µM (inactive)	–	26.5 µM (inactive)	–	> 100 µM (inactive)	> 100 µM (inactive)	> 100 µM (inactive)	37.5 µM (inactive)	> 100 µM (inactive)
C[C@]12CCC(O)CC1=CC[C@@H]1[C@@H]2CC[C@]2(C)C(O)[C@H](n3ccnc3)C[C@@H]12 (stereo partly specified)	77.1 µM (inactive)	> 100 µM (inactive)	> 100 µM (inactive)	> 100 µM (inactive)	75 µM (inactive)	69.2 µM	> 100 µM (inactive)	> 100 µM (inactive)	> 100 µM (inactive)	> 100 µM (inactive)	> 100 µM (inactive)	–	> 100 µM (inactive)	> 100 µM (inactive)	11.1 µM (inactive)	52 µM (inactive)	17.4 µM (inactive)	51.4 µM (inactive)	28.2 µM (inactive)	79.3 µM (inactive)
CC1(O)CC23CC(O)C4(O)C(CC(O)C4(C)C)C(C)(O)C2CCC1C3O (stereo unspecified)	> 100 µM (inactive)	–	> 100 µM (inactive)	> 100 µM (inactive)	> 100 µM (inactive)	> 100 µM	> 100 µM (inactive)	> 100 µM (inactive)	> 100 µM (inactive)	> 100 µM (inactive)	> 100 µM (inactive)	> 100 µM (inactive)	> 100 µM (inactive)	> 100 µM (inactive)	> 100 µM (inactive)	> 100 µM (inactive)	> 100 µM (inactive)	> 100 µM (inactive)	> 100 µM (inactive)	–
CC(C)(C)OC(=O)C1/C(=C/CO)CN1C(=O)OC(C)(C)C (stereo unspecified)	> 100 µM (inactive)	–	> 100 µM (inactive)	–	> 100 µM (inactive)	> 100 µM	> 100 µM (inactive)	> 100 µM (inactive)	> 100 µM (inactive)	> 100 µM (inactive)	> 100 µM (inactive)	–	> 100 µM (inactive)	> 100 µM (inactive)	> 100 µM (inactive)	–	57.3 µM (inactive)	> 100 µM (inactive)	> 100 µM (inactive)	> 100 µM (inactive)
CC(=O)Oc1cc2c(cc1OC(C)=O)OCC(c1ccc(C)cc1)C2 (stereo unspecified)	11.7 µM (inactive)	9.42 µM (inactive)	23.4 µM (inactive)	–	–	19.6 µM	21.7 µM (inactive)	10.5 µM (inactive)	33.5 µM (inactive)	20 µM (inactive)	–	–	20.3 µM (inactive)	26.8 µM (inactive)	2.61 µM (inactive)	9.91 µM (inactive)	7.19 µM (inactive)	24.9 µM (inactive)	21.4 µM (inactive)	–
CCCCOCn1c(=O)[nH]c(=O)c2cc(Br)ccc21	42.5 µM (inactive)	39.7 µM (inactive)	22.6 µM (inactive)	> 100 µM (inactive)	68.2 µM (inactive)	44.2 µM	20.8 µM (inactive)	–	> 100 µM (inactive)	> 100 µM (inactive)	53.5 µM (inactive)	–	40.6 µM (inactive)	31.1 µM (inactive)	42.5 µM (inactive)	95.1 µM (inactive)	44.1 µM (inactive)	42.5 µM (inactive)	43.9 µM (inactive)	55.2 µM (inactive)
COc1ccc(C2=Nc3cc(C)c(C)cc3NC(c3ccccc3)C2)cc1 (stereo unspecified)	> 100 µM (inactive)	–	> 100 µM (inactive)	> 100 µM (inactive)	50.2 µM (inactive)	41.4 µM	> 100 µM (inactive)	> 100 µM (inactive)	> 100 µM (inactive)	> 100 µM (inactive)	> 100 µM (inactive)	21.7 µM (inactive)	> 100 µM (inactive)	> 100 µM (inactive)	18.7 µM (inactive)	> 100 µM (inactive)	16.3 µM (inactive)	6.46 µM (inactive)	34.4 µM (inactive)	–
C[C@]12C=CC(=O)C=C1CC[C@@H]1[C@@H]2CC[C@@]2(C)[C@H]1CC[C@]2(O)C(N)=O	> 100 µM (inactive)	> 100 µM (inactive)	> 100 µM (inactive)	> 100 µM (inactive)	> 100 µM (inactive)	> 100 µM	–	> 100 µM (inactive)	> 100 µM (inactive)	> 100 µM (inactive)	> 100 µM (inactive)	> 100 µM (inactive)	> 100 µM (inactive)	> 100 µM (inactive)	> 100 µM (inactive)	> 100 µM (inactive)	> 100 µM (inactive)	–	50.8 µM (inactive)	> 100 µM (inactive)
N=C(N)SCc1cccc([N+](=O)[O-])c1	39.5 µM (inactive)	30.3 µM (inactive)	42.3 µM (inactive)	–	–	34.5 µM	24.4 µM (inactive)	33 µM (inactive)	48.2 µM (inactive)	31.8 µM (inactive)	–	–	57.7 µM (inactive)	26.2 µM (inactive)	18.8 µM (inactive)	44.7 µM (inactive)	32.7 µM (inactive)	28.4 µM (inactive)	27.2 µM (inactive)	–
CN1CCC23c4ccccc4NC1C21CCN(C)C3Nc2ccccc21	> 375 µM (inactive)	> 303 µM (inactive)	> 294 µM (inactive)	–	–	> 375 µM	75.5 µM (inactive)	102 µM (inactive)	> 375 µM (inactive)	> 375 µM (inactive)	–	–	> 375 µM (inactive)	59.4 µM (inactive)	59.7 µM (inactive)	> 375 µM (inactive)	151 µM (inactive)	> 375 µM (inactive)	93.3 µM (inactive)	–
O=C(COc1cc(=O)oc2ccccc12)c1ccccc1	16.7 µM (inactive)	26.4 µM (inactive)	> 100 µM (inactive)	> 100 µM (inactive)	–	> 100 µM	4.69 µM (inactive)	48.5 µM (inactive)	> 100 µM (inactive)	32.3 µM (inactive)	> 100 µM (inactive)	25.4 µM (inactive)	26.9 µM (inactive)	33 µM (inactive)	> 100 µM (inactive)	17.7 µM (inactive)	> 100 µM (inactive)	> 100 µM (inactive)	> 100 µM (inactive)	47 µM (inactive)
